How the values were obtained:
Assay type in all cases: cell-based, Human
[1] = tested on: CD34+ population from CP-CML cells from imatinib-resistant patients; assay: CD34+ count and apoptosis in CD34+ LSC population from imatinib-resistant CP-CML patients
Procedure: CD34^+ population from CP-CML cells from imatinib-resistant patients (n=3) were individually purified using a CD34 microbead kit (Miltenyi Biotech) and were treated with 5 μM CFZ or salinomycin for 48 h. Cells were then divided into two groups. One group was assessed by immunostaining for CD34 and the other group was stained with annexin V/PI and the cells were then analyzed by flow-cytometry. Salinomycin was used as positive control. **p<0.01, ***p<0.0001.
CD34^+ population from primary CP-CML cells from imatinib-resistant patients (n=3) were purified using a CD34 microbead kit. Cells were incubated with V or 2.5 μM CFZ for 96 h, stained with PE-conjugated anti-CD34 and FITC-conjugated anti-CD38 antibodies for specific subpopulation and apoptosis was analyzed by APC labeled annexin V and propidium iodide (PI) staining followed by flow-cytometry (FACSCalibur, BD biosciences). *p<0.05, **p<0.01.
The observed purity was 80-90%.
For assessing apoptosis in the CD34^+ population from CML patients, these cells were then treated as indicated in the figures and figure descriptions (FIG. 2A). At the end of treatment, cells from each treatment group were divided in two separate tubes. One group was stained with CD34-PE and the other group was stained with Annexin V FITC/PI antibodies.
For assessing apoptosis in CD34^+ CD38^+ and CD34^+ CD38^− subpopulations from CML patients, CD34^+ cells were isolated as above and were treated with V or 2.5 μM CFZ for 96 h and then stained with PE-conjugated anti-CD34, FITC-conjugated anti-CD38 antibodies for 30 min and then stained with Annexin V-APC/PI at room temperature for 15 minutes and then were gated into CD34^+38^+ and CD34^+38^− populations and apoptosis was assessed in a FACSAria flow cytometer.

[2] = tested on: K562 cells; assay: Western blotting of apoptosis proteins in K562 cells
Procedure: PARP cleavage in K562 cells was assessed by western blotting. One representative of three independent experiments is shown.
The expression of indicated proteins was determined by immunoblotting in K562 cells following indicated treatments. One representative of three independent experiments is shown.
K562 cells were cultured in 6 well plates and treated as indicated in figures or descriptions of FIG. 1E, FIG. 1G and FIG. 2D-E. Cells were then homogenized in lysis buffer containing 50 mM Tris-HCl, pH 7.5, 150 mM NaCl, 1% NP40, 5 mM EDTA, 1 mM DTT, protease and phosphatase inhibitor cocktails (Sigma) and incubated on ice for 30 min followed by 5 cycles of freeze-thaw. Samples were then centrifuged at 14000 rpm at 4° C. for 30 min. Supernatants were then quantified by Bichinchonic acid (Sigma)-based protein estimation. Equal amount of proteins were solubilized in Laemmli buffer, and were resolved by 10%-12% SDS PAGE and transferred onto PVDF membranes (Millipore; Billerica, Mass.). Membranes were blocked in 5% (w/v) non-fat dried milk powder (Sigma) in PBS containing 0.2% Tween 20 (Sigma). The membranes were then sequentially incubated with primary and secondary antibodies in PBS containing 0.2% Tween 20 and 2.5% BSA (with 3 washes in between). Immunoreactivity was detected using a chemiluminescent HRP Substrate (Millipore) in a LAS 4010 Chemi-doc Imager (GE Healthcare, Little Chalfont, UK). Antibodies used: phospho-STAT5, STAT5, cleaved PARP and caspases-3, -8, -9, pCrkL, Bcl2 and Bax antibodies were from Cell Signaling Technology (Boston, Mass.). Mouse monoclonal anti-β-Actin-Peroxidase and horse raddish peroxidase-conjugated secondary antibodies were from Sigma-Aldrich. For immunoblotting all primary antibodies were used in 1:1000 dilutions except β-actin (1:50000). Secondary antibodies were used at 1:10000 dilutions.

[3] = tested on: K562 cells; assay: Apoptosis by annexin V/PI staining and flow cytometry in K562 cells; details: 48 h
Procedure: K562 cells were treated with CFZ for 48 h and apoptosis was analyzed by annexin V and propidium iodide (PI) staining followed by flow-cytometry (FACSCalibur, BD biosciences). (C) Mean±SEM of three independent experiments are plotted. (D) Representative dot plot.

[4] = tested on: CrkL; assay: Immunoblotting of CrkL phosphorylation in K562 cells; details: 30 min, Y207
Procedure: K562 cells were treated as indicated for 30 min and stat5 phosphorylation at Y694 or CrkL phosphorylation at Y207 were assessed by immunoblotting. Total stat5 or β-actin expression was assessed to ensure equal loading. Pio was used as a negative control and IMT was used as a positive control. Data is one representative of 3 independent experiments.
K562 cells were cultured in 6 well plates and treated as indicated in figures or descriptions of FIG. 1E, FIG. 1G and FIG. 2D-E. Cells were then homogenized in lysis buffer containing 50 mM Tris-HCl, pH 7.5, 150 mM NaCl, 1% NP40, 5 mM EDTA, 1 mM DTT, protease and phosphatase inhibitor cocktails (Sigma) and incubated on ice for 30 min followed by 5 cycles of freeze-thaw. Samples were then centrifuged at 14000 rpm at 4° C. for 30 min. Supernatants were then quantified by Bichinchonic acid (Sigma)-based protein estimation. Equal amount of proteins were solubilized in Laemmli buffer, and were resolved by 10%-12% SDS PAGE and transferred onto PVDF membranes (Millipore; Billerica, Mass.). Membranes were blocked in 5% (w/v) non-fat dried milk powder (Sigma) in PBS containing 0.2% Tween 20 (Sigma). […] Immunoreactivity was detected using a chemiluminescent HRP Substrate (Millipore) in a LAS 4010 Chemi-doc Imager (GE Healthcare, Little Chalfont, UK). […]

[5] = tested on: stat5b, HIF-1α, HIF-2α and CITED2 transcripts in CD34+ cells from imatinib-resistant patients; assay: QRT-PCR of stem cell factors in CD34+ CML cells
Procedure: CD34^+ cells isolated from IMT-resistant patients (n=3) were treated with CFZ (5 μM, 24 h) and stat5b, HIF-1α, HIF-2α and CITED2 transcripts were assessed by QRT-PCR (in triplicates). ***p<0.0001.
CD34+ cells were isolated from imatinib-resistant CP-CML cells as described above. Cells were then treated with vehicle (V; 0.1% DMSO) or CFZ (5 μM) for 24 h. Total RNA was isolated from CD34+ cells as described above, using TRI reagent. 2 μg total RNA was reverse transcribed using High-Capacity cDNA Reverse Transcription Kit (Applied Biosystems; Foster City, Calif.). Quantitative real-time PCRs (QRT-PCR) were performed on a LightCycler 480 System (Roche, Indianapolis, Ind.) using VeriQuest SYBR Green qPCR Master Mix (Affymetrix, Thermo Scientific). The QRT-PCR primers were designed using Universal ProbeLibrary Assay Design Center (Roche Life Science). Primer sequences (5′-3′) hSTAT5B-For-TGAAG […], hSTAT5B-Rev […] ACTG, hHIF-1α-For-[…], hHIF-1α-Rev-[…], hHIF-2α-For-[…], hHIF-2α-Rev-[…], hCITED-2-For-[…], hCITED-2-Rev-[…]. The data were analyzed by ΔΔCT method with GAPDH (GAPDH-For-[…], GAPDH-Rev-GCC […]) used as an internal control (FIG. 2F).

[6] = CD34+ cells from imatinib-resistant patients, CFZ 5 μM, 24 h

**Q.** Which “apoptosis in committed CD34+38+ progenitor cells” value ([1]; 2.5 μM CFZ, 96 h, n=3) does the source give for `CC(C)/N=c1\cc2n(-c3ccc(Cl)cc3)c3ccccc3nc-2cc1Nc1ccc(Cl)cc1` [CFZ, Clofazimine] here?
**A.** induced apoptosis

**Q.** What about the “apoptosis in primitive CD34+38− progenitor cells” value ([1]; 2.5 μM CFZ, 96 h, n=3) of the same compound?
**A.** induced apoptosis

**Q.** What about the “apoptosis in CD34+ LSC population” value ([1]; imatinib-resistant CP-CML patients, n=3, 5 μM, 48 h) of the same compound?
**A.** induced apoptosis

**Q.** What about the “CD34+ population” value ([1]; imatinib-resistant patients, 5 μM, 48 h) of the same compound?
**A.** reduces

**Q.** And the Bax expression [2]?
**A.** increased

**Q.** And the Bcl-2 expression [2]?
**A.** decreased

**Q.** What about the caspase-3 activation [2] of the same compound?
**A.** activated

**Q.** What about the caspase-9 activation [2] of the same compound?
**A.** activated

**Q.** What about the “cytochrome C release” value [2] of the same compound?
**A.** induced

**Q.** What about the “apoptosis as determined by PARP cleavage” value ([2]; western blotting) of the same compound?
**A.** induces apoptosis

**Q.** What about the “apoptosis by Annexin V staining” value [3] of the same compound?
**A.** concentration-dependently induces apoptosis

**Q.** And the CrkL phosphorylation [4]?
**A.** did not alter

**Q.** What about the CITED2 transcript [5, 6] of the same compound?
**A.** reduced

**Q.** What about the HIF-1α transcript [5, 6] of the same compound?
**A.** reduced

**Q.** And the HIF-2α transcript [5, 6]?
**A.** reduced

**Q.** And the stat5b transcript [5, 6]?
**A.** reduced

**Q.** What about the “stat5 mRNA expression” value ([5]; FIG. 2F) of the same compound?
**A.** suppressed

— patent US10576078B2 (Council of Scientific & Industrial Research, priority 2017, dated 2020)
